Assays:
Experiment in all cases: relative viability (nuclei count vs DMSO), 5 days (fraction); higher = more cells survive
IPA-3 + Tozasertib = compound: C1=CC=C2C(=C1)C=CC(=C2SSC3=C(C=CC4=CC=CC=C43)O)O [IPA-3] + Cc1cc(Nc2cc(N3CCN(C)CC3)nc(Sc3ccc(NC(=O)C4CC4)cc3)n2)n[nH]1 [Tozasertib] (partner 0.1 µM)
In short: (§1)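 Dosing by pin tool came one day after lung cancer cell lines were seeded in 1536-well plates, using either one drug or a fixed anchor-drug dose plus five library-drug doses (not always all listed) in √10 steps. After 5 days, nuclei were counted on 4× images. Relative viability is treated-well nuclei count divided by vehicle-well nuclei count, and values are medians of duplicate plates.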

Doramapimod + OSI-027 = compound: Cc1ccc(-n2nc(C(C)(C)C)cc2NC(=O)Nc2ccc(OCCN3CCOCC3)c3ccccc23)cc1 [Doramapimod] + COc1cccc2cc(-c3nc([C@H]4CC[C@H](C(=O)O)CC4)n4ncnc(N)c34)[nH]c12 [OSI-027] (partner 0.5 µM)
In short: as §1

RAF265 + Linsitinib = compound: Cn1c(Nc2ccc(C(F)(F)F)cc2)nc2cc(Oc3ccnc(-c4ncc(C(F)(F)F)[nH]4)c3)ccc21 [RAF265] + C[C@]1(O)C[C@@H](c2nc(-c3ccc4ccc(-c5ccccc5)nc4c3)c3c(N)nccn32)C1 [Linsitinib] (partner 1 µM)
In short: as §1

RAF265 + Decitabine = compound: Cn1c(Nc2ccc(C(F)(F)F)cc2)nc2cc(Oc3ccnc(-c4ncc(C(F)(F)F)[nH]4)c3)ccc21 [RAF265] + Nc1ncn([C@H]2C[C@H](O)[C@@H](CO)O2)c(=O)n1 [Decitabine] (partner 2 µM)
In short: as §1

Cell Line | relative viability (IPA-3 + Tozasertib; first compound 0.2 µM) | relative viability (IPA-3 + Tozasertib; first compound 0.6325 µM) | relative viability (IPA-3 + Tozasertib; first compound 2 µM) | relative viability (IPA-3 + Tozasertib; first compound 6.325 µM) | relative viability (IPA-3 + Tozasertib; first compound 20 µM) | relative viability (Doramapimod + OSI-027; first compound 0.02 µM) | relative viability (Doramapimod + OSI-027; first compound 0.06325 µM) | relative viability (Doramapimod + OSI-027; first compound 0.2 µM) | relative viability (Doramapimod + OSI-027; first compound 0.6325 µM) | relative viability (Doramapimod + OSI-027; first compound 2 µM) | relative viability (RAF265 + Linsitinib; first compound 0.01 µM) | relative viability (RAF265 + Linsitinib; first compound 0.03162 µM) | relative viability (RAF265 + Linsitinib; first compound 0.1 µM) | relative viability (RAF265 + Linsitinib; first compound 0.3162 µM) | relative viability (RAF265 + Linsitinib; first compound 1 µM) | relative viability (RAF265 + Decitabine; first compound 0.01 µM) | relative viability (RAF265 + Decitabine; first compound 0.03162 µM) | relative viability (RAF265 + Decitabine; first compound 0.1 µM) | relative viability (RAF265 + Decitabine; first compound 0.3162 µM) | relative viability (RAF265 + Decitabine; first compound 1 µM)
NCI-H661 | 0.328 | 0.356 | 0.358 | 0.338 | 0.347 | 0.71 | 0.732 | 0.791 | 0.799 | 0.629 | 0.589 | 0.412 | 0.686 | 0.455 | 0.33 | 0.692 | 0.527 | 0.435 | 0.442 | 0.378
EMC-BAC-2 | 0.279 | 0.296 | 0.312 | 0.303 | 0.269 | 0.379 | 0.396 | 0.445 | 0.571 | 0.43 | 0.761 | 0.793 | 0.734 | 0.596 | 0.348 | 1.05 | 0.842 | 0.958 | 0.832 | 0.547
NCI-H1355 | 0.596 | 0.566 | 0.599 | 0.586 | 0.656 | 0.412 | 0.409 | 0.381 | 0.361 | 0.341 | 0.791 | 0.67 | 0.72 | 0.458 | 0.298 | 0.387 | 0.323 | 0.363 | 0.326 | 0.26
NCI-H23 | 0.506 | 0.367 | 0.432 | 0.38 | 0.354 | 0.646 | 0.601 | 0.663 | 0.491 | 0.628 | 0.668 | 0.541 | 0.437 | 0.321 | 0.202 | 0.335 | 0.317 | 0.258 | 0.266 | 0.175
NCI-H1651 | 0.727 | 0.613 | 0.883 | 0.708 | 0.691 | 0.751 | 0.701 | 0.727 | 0.729 | 0.656 | 0.999 | 0.976 | 1.07 | 0.74 | 0.737 | 0.675 | 0.632 | 0.424 | 0.589 | 0.54
NCI-H1975 | 0.833 | 0.685 | 0.855 | 0.906 | 0.755 | 0.703 | 0.741 | 0.802 | 0.792 | 0.663 | 0.855 | 0.712 | 0.567 | 0.43 | 0.361 | 0.403 | 0.364 | 0.308 | 0.263 | 0.254
COR-L23 | 0.197 | 0.201 | 0.344 | 0.25 | 0.165 | 0.688 | 0.892 | 0.84 | 0.806 | 0.621 | 0.847 | 0.838 | 0.662 | 0.431 | 0.312 | 0.553 | 0.399 | 0.436 | 0.377 | 0.313
HCC-44 | 1.09 | 0.953 | 0.996 | 0.71 | 0.93 | 0.563 | 0.607 | 0.625 | 0.463 | 0.433 | 0.643 | 0.617 | 0.667 | 0.661 | 0.64 | 0.945 | 0.951 | 0.95 | 0.967 | 0.947
LOU-NH91 | 0.649 | 0.669 | 0.649 | 0.656 | 0.742 | 0.776 | 0.752 | 0.738 | 0.769 | 0.559 | 1.03 | 0.818 | 1.03 | 0.599 | 0.644 | 0.828 | 0.745 | 0.763 | 0.685 | 0.685
NCI-H441 | 0.738 | 0.596 | 0.739 | 0.739 | 0.524 | 0.709 | 0.512 | 0.591 |  | 0.475 | 0.617 | 0.495 | 0.415 | 0.3 | 0.389 | 0.25 | 0.227 | 0.22 | 0.278 | 0.214
NCI-H647 | 0.463 | 0.298 | 0.266 | 0.415 | 0.161 | 0.702 | 0.546 | 0.706 | 0.711 | 0.639 | 0.801 | 0.991 | 1.01 | 0.574 | 0.519 | 0.394 | 0.33 | 0.357 | 0.266 | 0.262
NCI-H1915 | 0.466 | 0.425 | 0.446 | 0.428 | 0.513 | 0.591 | 0.622 | 0.671 | 0.606 | 0.561 | 1.1 | 1.01 | 1.03 | 0.653 | 0.323 | 0.262 | 0.278 | 0.258 | 0.236 | 0.193
NCI-H1734 | 0.275 | 0.269 | 0.251 | 0.306 | 0.23 | 0.55 | 0.508 | 0.537 | 0.589 | 0.448 | 1.02 | 0.883 | 0.717 | 0.676 | 0.421 | 0.515 | 0.424 | 0.47 | 0.41 | 0.304
NCI-H1993 | 0.625 | 0.578 | 0.586 | 0.56 | 0.601 | 0.573 | 0.566 | 0.59 | 0.495 | 0.522 | 0.68 | 0.763 | 0.66 | 0.713 | 0.722 | 0.615 | 0.644 | 0.561 | 0.544 | 0.624
LK-2 | 0.168 | 0.192 | 0.176 | 0.142 | 0.155 | 0.204 | 0.152 | 0.18 | 0.158 | 0.186 | 0.615 | 0.555 | 0.67 | 0.671 | 0.351 | 0.385 | 0.339 | 0.348 | 0.316 | 0.179
HCC-78 | 0.508 | 0.429 | 0.448 | 0.402 | 0.398 | 0.372 | 0.362 | 0.365 | 0.358 | 0.299 | 0.553 | 0.468 | 0.574 | 0.47 | 0.439 | 0.852 | 0.73 | 0.752 | 0.731 | 0.669
NCI-H2405 | 0.796 | 0.755 | 0.727 | 0.748 | 0.774 | 0.654 | 0.596 | 0.606 | 0.74 | 0.598 | 0.993 | 0.884 | 1.03 | 0.852 | 0.378 | 0.825 | 0.776 | 0.727 | 0.607 | 0.448
HOP-62 | 0.388 | 0.312 | 0.395 | 0.382 | 0.402 | 0.828 | 0.81 | 0.906 | 0.923 | 0.741 | 0.89 |  | 1.07 | 0.976 | 0.604 | 0.223 | 0.215 | 0.238 | 0.226 | 0.186
NCI-H650 | 0.823 | 0.694 | 0.786 | 0.703 | 0.831 | 0.544 | 0.626 | 0.61 | 0.608 | 0.52 | 0.972 | 0.845 | 0.666 | 0.442 | 0.375 | 0.342 | 0.319 | 0.395 | 0.308 | 0.288
NCI-H358 | 0.107 | 0.0935 | 0.11 | 0.0943 | 0.119 | 0.746 | 0.699 | 0.634 | 0.858 | 0.681 | 0.843 | 0.565 | 0.443 | 0.37 | 0.267 | 0.25 | 0.206 | 0.164 | 0.15 | 0.154
BEN | 0.528 | 0.582 | 0.48 | 0.5 | 0.588 | 0.317 | 0.309 | 0.33 | 0.236 | 0.316 | 0.897 | 1.01 | 1.12 | 0.939 | 0.791 | 0.835 | 0.722 | 0.769 | 0.737 | 0.655
SW 1573 | 0.16 | 0.23 | 0.222 | 0.155 | 0.136 | 0.585 | 0.514 | 0.485 | 0.586 | 0.352 | 0.767 | 0.744 | 0.796 | 0.612 | 0.508 | 0.675 | 0.406 | 0.4 | 0.325 | 0.244
SK-MES-1 | 0.991 | 0.775 | 0.933 | 0.804 | 0.694 | 0.643 | 0.571 | 0.565 | 0.573 | 0.521 | 1.14 | 0.926 | 0.947 | 0.562 | 0.249 | 0.383 | 0.295 | 0.3 | 0.231 | 0.221
NCI-H1755 | 0.586 | 0.568 | 0.552 | 0.561 | 0.504 | 0.709 | 0.659 | 0.727 | 0.669 | 0.586 | 0.959 | 1.06 | 0.988 | 0.825 | 0.579 | 0.693 | 0.661 | 0.728 | 0.723 | 0.642
NCI-H2023 | 0.321 | 0.347 | 0.365 | 0.39 | 0.424 | 0.362 | 0.362 | 0.369 | 0.479 | 0.301 | 0.588 | 0.743 | 0.776 | 0.644 | 0.424 | 0.26 | 0.208 | 0.198 | 0.215 | 0.176
LC-2-ad | 0.48 | 0.467 | 0.531 | 0.424 | 0.458 | 0.897 | 0.811 | 0.891 | 0.827 | 0.671 | 0.807 | 0.762 | 0.727 | 0.316 | 0.293 | 0.778 | 0.814 | 0.884 | 0.773 | 0.516
NCI-H1666 | 0.611 | 0.604 | 0.594 | 0.6 | 0.703 | 0.974 | 0.852 | 0.846 | 0.787 | 0.772 | 0.894 | 0.923 | 0.888 | 0.854 | 0.565 | 0.851 | 0.915 | 0.71 | 0.722 | 0.694

Reference: the supplement of paper PMC10307832
